PubChem BioAssay AID330 (DTP/NCI, 2004)
Several values for one entry are separate records, joined by “and”; a condition that tells them apart may be missing. Equal values may be shown once. Inconclusive results and toxic doses are left out. Rule for the calls: active = survival T/C of 150% or more; inactive = T/C below 125% in these data.

System: P388 leukemia ip, CD2F1 mice, survival T/C
Experiment: NCI In Vivo Anticancer Drug Screen. Data for tumor model P388 Leukemia (intraperitoneal) in CD2F1 (CDF1) mice
Settings: endpoint: median survival time, higher = longer survival
Summary of the method: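 Mice carrying the transplanted tumor received test compound or vehicle. Survival was recorded in each group, and the value is the treated-group measurement divided by that of the vehicle-treated control group.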

[1] = dose: 25.0 mg/kg/injection, schedule: Q01DX005 (ip), vehicle: saline with Tween-80
[2] = dose: 50.0 mg/kg/injection, schedule: Q01DX005 (ip), vehicle: saline with Tween-80
[3] = dose: 100.0 mg/kg/injection, schedule: Q01DX005 (ip), vehicle: saline with Tween-80
[4] = dose: 60.0 mg/kg/injection, schedule: Q01DX005 (ip), vehicle: saline with Tween-80
[5] = dose: 120.0 mg/kg/injection, schedule: Q01DX005 (ip), vehicle: saline with Tween-80
[6] = dose: 240.0 mg/kg/injection, schedule: Q01DX005 (ip), vehicle: saline with Tween-80
[7] = dose: 100.0 mg/kg/injection, schedule: Q04DX003 (ip), vehicle: saline with Tween-80
[8] = dose: 400.0 mg/kg/injection, schedule: Q04DX003 (ip), vehicle: saline with Tween-80
[9] = dose: 50.0 mg/kg/injection, schedule: Q01DX009 (ip), vehicle: Klucel (hydroxypropylcellulose) (HPC)
[10] = dose: 100.0 mg/kg/injection, schedule: Q01DX009 (ip), vehicle: Klucel (hydroxypropylcellulose) (HPC)
[11] = dose: 200.0 mg/kg/injection, schedule: Q01DX009 (ip), vehicle: Klucel (hydroxypropylcellulose) (HPC)
[12] = dose: 50.0 mg/kg/injection, schedule: Q01DX009 (ip), vehicle: saline with Tween-80
[13] = dose: 100.0 mg/kg/injection, schedule: Q01DX009 (ip), vehicle: saline with Tween-80
[14] = dose: 60.0 mg/kg/injection, schedule: Q01DX005 (ip), vehicle: Klucel (hydroxypropylcellulose) (HPC)
[15] = dose: 120.0 mg/kg/injection, schedule: Q01DX005 (ip), vehicle: Klucel (hydroxypropylcellulose) (HPC)
[16] = dose: 12.5 mg/kg/injection, schedule: Q01DX009 (ip), vehicle: Klucel (hydroxypropylcellulose) (HPC)
[17] = dose: 12.5 mg/kg/injection, schedule: Q01DX009 (ip), vehicle: saline
[18] = dose: 25.0 mg/kg/injection, schedule: Q01DX009 (ip), vehicle: Klucel (hydroxypropylcellulose) (HPC)
[19] = dose: 200.0 mg/kg/injection, schedule: Q01DX005 (ip), vehicle: saline with Tween-80
[20] = dose: 50.0 mg/kg/injection, schedule: Q01DX009 (ip), vehicle: saline
[21] = dose: 100.0 mg/kg/injection, schedule: Q01DX009 (ip), vehicle: saline
[22] = dose: 200.0 mg/kg/injection, schedule: Q01DX009 (ip), vehicle: saline
[23] = dose: 25.0 mg/kg/injection, schedule: Q04DX002 (ip), vehicle: saline with Tween-80
[24] = dose: 50.0 mg/kg/injection, schedule: Q04DX002 (ip), vehicle: saline with Tween-80
[25] = dose: 100.0 mg/kg/injection, schedule: Q04DX002 (ip), vehicle: saline with Tween-80

Measured: T/C

CC(C)C1CC(N(C)C)=CC(=S)N1 (centres undefined)
inactive: dose: 50.0 mg/kg/injection, schedule: Q01DX005 (ip), vehicle: Klucel (hydroxypropylcellulose) (HPC) 106 % of control | dose: 100.0 mg/kg/injection, schedule: Q01DX005 (ip), vehicle: Klucel (hydroxypropylcellulose) (HPC) 110 % of control | dose: 100.0 mg/kg/injection, schedule: Q01DX005 (ip), vehicle: saline 93 % of control | dose: 200.0 mg/kg/injection, schedule: Q01DX005 (ip), vehicle: saline 102 % of control

CC([NH-])C[NH-].CC([NH-])C[NH-].CC([NH-])C[NH-].[Co] (centres undefined)
inactive: dose: 12.5 mg/kg/injection, schedule: Q04DX003 (ip), vehicle: water 91 % of control | dose: 25.0 mg/kg/injection, schedule: Q04DX003 (ip), vehicle: water 94 % of control | dose: 50.0 mg/kg/injection, schedule: Q04DX003 (ip), vehicle: water 94 % of control | dose: 100.0 mg/kg/injection, schedule: Q04DX003 (ip), vehicle: water 90 % of control

CC1=CC2c3cccc4[nH]cc(c34)CC2N(C)C1 (centres undefined)
inactive: dose: 2.5 mg/kg/injection, schedule: Q01DX009 (ip), vehicle: saline 114 % of control and 116 % of control | dose: 5.0 mg/kg/injection, schedule: Q01DX009 (ip), vehicle: saline 117 % of control | dose: 10.0 mg/kg/injection, schedule: Q01DX009 (ip), vehicle: saline 116 % of control and 120 % of control

O=C1/C(=C\c2ccccc2)SC(=S)N1c1cccc(Br)c1
inactive: [1] 87 % of control | [2] 97 % of control | [3] 106 % of control

S=C1N(c2ccc(Cl)cc2)C2=C(N=Nc3ccccc3)C(=Nc3ccccc3S2)N1c1ccccn1
inactive: [2] 109 % of control | [3] 108 % of control

CCCCC#CC(=O)OCC
inactive: [4] 101 % of control | [5] 106 % of control | [6] 113 % of control

CN(C)C(=O)n1cnc([N+](=O)[O-])c1
inactive: dose: 100.0 mg/kg/injection, schedule: Q01DX001 (ip), vehicle: saline with Tween-80 97 % of control | dose: 200.0 mg/kg/injection, schedule: Q01DX001 (ip), vehicle: saline with Tween-80 112 % of control

O=C(Nc1ccc(Nc2ccc(NC(=O)c3ccccc3)c3c2C(=O)c2ccccc2C3=O)c2c1C(=O)c1ccccc1C2=O)c1ccccc1
inactive: [7] 95 % of control | dose: 200.0 mg/kg/injection, schedule: Q04DX003 (ip), vehicle: saline with Tween-80 100 % of control | [8] 100 % of control

CCOC(=O)C1CCc2ccc(OC)c(OC)c2C1 (centres undefined)
inactive: dose: 12.5 mg/kg/injection, schedule: Q01DX009 (ip), vehicle: other 100 % of control | dose: 25.0 mg/kg/injection, schedule: Q01DX009 (ip), vehicle: other 97 % of control | dose: 50.0 mg/kg/injection, schedule: Q01DX009 (ip), vehicle: other 105 % of control | dose: 100.0 mg/kg/injection, schedule: Q01DX009 (ip), vehicle: other 100 % of control | dose: 200.0 mg/kg/injection, schedule: Q01DX009 (ip), vehicle: other 110 % of control

Cc1c2ccncc2c(CN(CCO)CCO)c2c3ccccc3n(C)c12
inactive: dose: 5.0 mg/kg/injection, schedule: Q01DX005 (ip), vehicle: saline 103 % of control | dose: 10.0 mg/kg/injection, schedule: Q01DX005 (ip), vehicle: saline 100 % of control | dose: 20.0 mg/kg/injection, schedule: Q01DX005 (ip), vehicle: saline 90 % of control

CO/C=C(\C(=O)OC)c1ccccc1
inactive: [9] 100 % of control | [10] 106 % of control | [11] 106 % of control

COc1ccc(S(=O)(=O)OCCCl)cc1
inactive: [12] 100 % of control | [13] 97 % of control | dose: 200.0 mg/kg/injection, schedule: Q01DX009 (ip), vehicle: saline with Tween-80 100 % of control

COC(=O)C(Cc1cn(C(O)(NC(=O)OCc2ccccc2)C(F)(F)F)cn1)NC(=O)C(NC(=O)C(CC(C)C)NC(=O)C(CSC(c1ccccc1)(c1ccccc1)c1ccccc1)NC(=O)OCc1ccccc1)C(C)C (centres undefined)
inactive: [14] 91 % of control | [15] 110 % of control | dose: 240.0 mg/kg/injection, schedule: Q01DX005 (ip), vehicle: Klucel (hydroxypropylcellulose) (HPC) 96 % of control

NNC(=O)c1ccccc1Cl
inactive: dose: 6.25 mg/kg/injection, schedule: Q01DX009 (ip), vehicle: Klucel (hydroxypropylcellulose) (HPC) 97 % of control | dose: 6.25 mg/kg/injection, schedule: Q01DX009 (ip), vehicle: saline 100 % of control | [16] 96 % of control | [17] 100 % of control | [18] 100 % of control

O=c1cc(CCl)[nH]nc1CCl
active: dose: 14.5 mg/kg/injection, schedule: Q04DX003 (ip), vehicle: saline with Tween-80 160 % of control | dose: 33.0 mg/kg/injection, schedule: Q04DX003 (ip), vehicle: saline with Tween-80 158 % of control | dose: 50.0 mg/kg/injection, schedule: Q04DX003 (ip), vehicle: saline with Tween-80 173 % of control

CCCCCCCCCCCCCCCCS[As](C)C
inactive: [2] 92 % of control | [3] 100 % of control | [19] 96 % of control

Cc1c(-c2nnc(N)o2)cc([N+](=O)[O-])cc1[N+](=O)[O-]
inactive: [4] 98 % of control | [5] 100 % of control | [6] 99 % of control

O=[N+]([O-])c1ccc(N/N=C\c2c(Cl)n(-c3ccccc3)c3ccccc23)c([N+](=O)[O-])c1
inactive: [1] 106 % of control | [2] 100 % of control and 105 % of control | [3] 109 % of control and 117 % of control | [7] 90 % of control | [19] 109 % of control and 114 % of control | [8] 88 % of control

c1ccc(CNc2ncccn2)nc1
inactive: [2] 100 % of control | [3] 96 % of control | [19] 100 % of control

Fc1cccc(Cl)c1C(Nc1cnccn1)Nc1cnccn1
inactive: [14] 104 % of control | [15] 119 % of control

S=C(Nc1ccccn1)c1ccccn1
inactive: [12] 95 % of control | [20] 105 % of control | [13] 88 % of control | [21] 103 % of control | [22] 103 % of control

NC(S(=O)(=O)O)S(=O)(=O)O
inactive: [20] 105 % of control | [21] 110 % of control | [22] 96 % of control

C/C(=N\NC(N)=Nc1ccccc1)c1ccc2c(c1)Cc1ccccc1-2
inactive: [23] 103 % of control | [24] 94 % of control | [25] 104 % of control

N/C(CC(=O)Nc1cc(C(F)(F)F)ccc1Cl)=N\O
inactive: [4] 108 % of control | [5] 100 % of control | [6] 108 % of control

Oc1cc2c(cc1C(c1ccc(F)cc1)N1CCCCC1)OCO2 (centres undefined)
inactive: [4] 111 % of control | [5] 116 % of control | [6] 115 % of control

O=S1(=O)C2C=CC1C(Br)C(Br)CC2 (centres undefined)
inactive: [16] 102 % of control | [18] 100 % of control | [9] 89 % of control | [10] 96 % of control | [11] 98 % of control

CC1=CC(C)(C)N(C)C(N)=N1
inactive: dose: 12.5 mg/kg/injection, schedule: Q01DX005 (ip), vehicle: saline 100 % of control | dose: 25.0 mg/kg/injection, schedule: Q01DX005 (ip), vehicle: saline 91 % of control | dose: 50.0 mg/kg/injection, schedule: Q01DX005 (ip), vehicle: saline 91 % of control

CCNCC(=O)Nc1ccc2c(c1)C(=O)c1ccc(NC(=O)CNCC)cc1C2=O
inactive: [23] 100 % of control | [24] 110 % of control | [25] 102 % of control | dose: 200.0 mg/kg/injection, schedule: Q04DX002 (ip), vehicle: saline with Tween-80 108 % of control and 93 % of control

CC(CN1CCOCC1)(CN1CCOCC1)[N+](=O)[O-]
inactive: [17] 111 % of control | dose: 25.0 mg/kg/injection, schedule: Q01DX009 (ip), vehicle: saline 110 % of control | [20] 107 % of control and 111 % of control | [21] 115 % of control
